Source: the CheMixHub ionic liquid set

Experiment: xn = mol fraction of the nth substance listed

CCCC[N+](CCCC)(CCCC)CCCC.O=[N+]([O-])[O-] + CCCCCCCCCCCCOS(=O)(=O)[O-].[Na+] + O
viscosity [mPa·s], 100 kPa
Details | x2 = 1.81e-06, x1 = 0.0001802 | x2 = 3.61e-06, x1 = 0.0001802 | x2 = 5.42e-06, x1 = 0.0001802 | x2 = 7.23e-06, x1 = 0.0001802 | x2 = 9.04e-06, x1 = 0.0001802 | x2 = 1.084e-05, x1 = 0.0001802 | x2 = 1.265e-05, x1 = 0.0001802 | x2 = 1.446e-05, x1 = 0.0001802 | x2 = 1.626e-05, x1 = 0.0001802 | x2 = 1.807e-05, x1 = 0.0001802
293.15 K | 1.012 | 1.013 | 1.014 | 1.014 | 1.015 | 1.016 | 1.017 | 1.018 | 1.018 | 1.018
298.15 K | 0.898 | 0.9 | 0.901 | 0.902 | 0.902 | 0.903 | 0.903 | 0.903 | 0.904 | 0.904
303.15 K | 0.797 | 0.798 | 0.798 | 0.8 | 0.8 | 0.801 | 0.801 | 0.801 | 0.801 | 0.801
308.15 K | 0.709 | 0.71 | 0.712 | 0.713 | 0.713 | 0.713 | 0.713 | 0.714 | 0.714 | 0.714
313.15 K | 0.643 | 0.644 | 0.644 | 0.644 | 0.645 | 0.645 | 0.645 | 0.645 | 0.645 | 0.646
318.15 K | 0.597 | 0.597 | 0.597 | 0.598 | 0.598 | 0.598 | 0.598 | 0.598 | 0.599 | 0.599

CCCCn1cc[n+](C)c1.O=S(=O)([N-]S(=O)(=O)C(F)(F)F)c1ccc[cH-]1.[Fe+2].c1cc[cH-]c1 + CCCC[n+]1ccn(C)c1.O=S(=O)([N-]S(=O)(=O)C(F)(F)F)C(F)(F)F
Details | viscosity [mPa·s]
298.15 K, 100 kPa, x2 = 0.749 | 184.5

Cc1ncc[nH]1 + CC[n+]1ccn(C)c1.[Cl-]
101.33 kPa, x2 = 0.667
Details | viscosity [mPa·s]
303.15 K | 394
313.15 K | 182.1
323.15 K | 101.5
333.15 K | 57.3
343.15 K | 38
353.15 K | 27

CCO + CCOP(=O)([O-])OCC.CC[N+]1(C)CCOCC1
100 kPa, x2 = 0
Details | viscosity [mPa·s]
293.15 K | 1.18
298.15 K | 1.11
303.15 K | 0.98
308.15 K | 0.89
313.15 K | 0.82
318.15 K | 0.75
323.15 K | 0.69
328.15 K | 0.65
333.15 K | 0.6
338.15 K | 0.56

CCC(C)=O + CCCC[n+]1ccn(C)c1.F[B-](F)(F)F
viscosity [mPa·s]
Details | 298.15 K | 303.15 K | 313.15 K | 323.15 K | 333.15 K
100 kPa, x2 = 0 | – | 0.367 | 0.333 | 0.304 | 0.29
100 kPa, x2 = 0.0997 | – | 0.817 | 0.737 | 0.688 | 0.595
100 kPa, x2 = 0.1995 | – | 1.594 | 1.424 | 1.27 | 1.189
100 kPa, x2 = 0.2996 | – | 2.941 | 2.486 | 2.135 | 1.878
100 kPa, x2 = 0.3997 | – | 5.054 | 4.146 | 3.479 | 2.97
100 kPa, x2 = 0.5001 | – | 8.51 | 6.778 | 5.465 | 4.57
100 kPa, x2 = 0.6001 | – | 14.01 | 10.62 | 8.302 | 6.74
100 kPa, x2 = 0.6998 | – | 22.67 | 16.37 | 12.55 | 9.78
100 kPa, x2 = 0.7999 | – | 35.13 | 24.24 | 17.78 | 13.54
100 kPa, x2 = 0.8993 | – | 54.16 | 35.18 | 24.79 | 18.41
101.33 kPa, x1 = 0.1005 | 67.9 | – | – | – | –
101.33 kPa, x1 = 0.3107 | 22.7 | – | – | – | –
101.33 kPa, x1 = 0.6995 | 3.17 | – | – | – | –

CC[n+]1ccn(C)c1.O=C([O-])[C@@H]1CCCN1 + CC[n+]1ccn(C)c1.N#C[C-](C#N)C#N
Details | viscosity [mPa·s]
298.15 K, 101 kPa, x2 = 0 | 1195

CC[S+](CC)CCOCCOCCOCCOCC[S+](CC)CC.N#C[N-]C#N.N#C[N-]C#N + CC[n+]1ccn(C)c1.N#C[N-]C#N + O=S(=O)([N-]S(=O)(=O)C(F)(F)F)C(F)(F)F.[Li+]
100 kPa, x1 = 0.2317, x2 = 0.6756
Details | electrical conductivity [S/m]
298 K | 0.811
303 K | 1.16
313 K | 1.35
323 K | 1.51
333 K | 1.93
343 K | 2.26

CCO + CS(=O)(=O)[O-].C[N+](C)(CCO)CCO
101 kPa, x2 = 0
Details | viscosity [mPa·s]
298.15 K | 1.102
303.15 K | 1.002
308.15 K | 0.915
313.15 K | 0.837
318.15 K | 0.768
323.15 K | 0.706

CCC(=O)[O-].C[n+]1ccn(CCO)c1 + O
100 kPa
Details | viscosity [mPa·s]
298.15 K, x1 = 0.7595 | 94.2
298.15 K, x1 = 0.8421 | 117
308.15 K, x1 = 0.8991 | 75.9
318.15 K, x1 = 0.8421 | 40.3
323.15 K, x1 = 0.8083 | 31.9
323.15 K, x1 = 0.8991 | 34.8
328.15 K, x1 = 0.8083 | 27
328.15 K, x1 = 0.9102 | 30.5
333.15 K, x1 = 0.8991 | 23.6

CCO + CCCC[n+]1ccn(C)c1.O=S(=O)([N-]S(=O)(=O)C(F)(F)F)C(F)(F)F
100 kPa, x2 = 0
Details | viscosity [mPa·s]
297.55 K | 1.11
297.85 K | 1.1
298.15 K | 1.1
301.48 K | 1.04
303.3 K | 1.01
309.67 K | 0.91
312.7 K | 0.86
313 K | 0.86
313.3 K | 0.85
313.61 K | 0.85
316.33 K | 0.8
319.36 K | 0.76
319.67 K | 0.76

CCO + CC[n+]1ccn(C)c1.N#C[N-]C#N
viscosity [mPa·s]
Details | 298.15 K | 303.15 K | 308.15 K | 313.15 K | 318.15 K | 323.15 K | 328.15 K
100 kPa, x2 = 0 | 1.11 | 1.02 | 0.93 | 0.85 | 0.78 | 0.71 | –
101 kPa, x1 = 1 | – | – | – | 0.83 | – | – | 0.64

C[N+](C)(CCO)CCOCCO.[Cl-] + OCCO
101 kPa, x1 = 0.3333
Details | viscosity [mPa·s]
283.15 K | 242.4
288.15 K | 177.4
293.15 K | 131.9
298.15 K | 100.9
303.15 K | 78.8
308.15 K | 62.2
313.15 K | 49.8
318.15 K | 40.49
323.15 K | 33.3
328.15 K | 27.72
333.15 K | 23.38
338.15 K | 19.82
343.15 K | 17
348.15 K | 14.73
353.15 K | 12.94

CCC[N+]1(C)CCCCC1.[Br-] + O + CC[N+]1(C)CCCCC1.[Br-]
Details | viscosity [mPa·s]
293.15 K, 101 kPa, x3 = 0.00299, x1 = 0.005976 | 1.575

CCO + CCCC[n+]1ccn(C)c1.[I-]
Details | electrical conductivity [S/m]
298.15 K, 100 kPa, x2 = 0 | 3.98e-05
